Laboratory results published in US20180296630A1, “METHODS AND COMPOSITIONS FOR PREVENTING OR TREATING OPHTHALMIC CONDITIONS” (Stealth BioTherapeutics Corp, priority 2012, published 2018).

Legend:
[1] = Ocular pharmacokinetics and disposition of total radioactivity after topical instillation or subcutaneous dosing; format: in vivo, New Zealand White rabbits; conditions: for AUC0-24 h / AUCinf / T1/2 / Tmax: topical instillation 1% solution, 40 μL/eye, total radioactivity; for time post-dosing at which equivalent drug concentration reached a maximum / equivalent drug content at peak concentration, of the total dose administered to the eye: topical instillation
Description: Sixteen New Zealand White rabbits were dosed with a formulation consisting of 10 mg/mL of ^14C-labeled D-Arg-2′,6′-Dmt-Lys-Phe-NH2. Animals were at least twelve weeks old and weighed 2.30-3.43 kg at the time of dosing. Animals were randomized to treatment groups according to Table 7.
Dosing solutions were prepared by combining 14.70 mg (correction factor of 0.782) of non-radiolabeled D-Arg-2′,6′-Dmt-Lys-Phe-NH2, and 17.49 mg (correction factor of 0.770) of ^14C-labeled D-Arg-2′,6′-Dmt-Lys-Phe-NH2, and dissolving in 2.5 mL of 0.01M PBS, pH 7.4 to achieve a concentration of 9.97 mg/mL (1%, free peptide) and a radiolabeled concentration of […]. Three aliquots (100 μL) of dosing solution were brought to a volume of 25 mL with saline. Duplicate 100 μL aliquots of the diluted solutions were quantified for radioactivity by liquid scintillation counting (LSC). […] The dosing solutions were stored at 2-8° C. for up to 24 hours prior to use, or at −70° C. for future use.
On Day 1, 40 μL of the 1% (10 mg/mL) D-Arg-2′,6′-Dmt-Lys-Phe-NH2 dosing solution was topically instilled into both eyes of each animal in Groups A-G. Each animal in Groups H-I received a single subcutaneous dose of 0.1 mL/kg (1 mg/kg) of the dosing solution into the dorsal scapular region. At the designated time, each animal was anesthetized and blood was collected via cardiac puncture. Animals were euthanized following cardiac puncture. Approximately 3±0.5 mL of whole blood was collected in a K2EDTA tube. Four aliquots (100 μL) were directly transformed to combustion cones. Blood aliquots were stored at ≤−20° C. until analyzed.
For Groups A-G, the right globe and one left globe from each group (N=3 globes) were collected and necropsied. The remaining left eye (except for Group G) was collected for possible 3D-QWBA (Quantitative whole body autoradiography) analysis and the conjunctiva remained intact to the eyes. For Groups H-I, both globes were collected from each animal and necropsied. All eyes designated for necropsy were rinsed with normal saline and aqueous humor samples were collected. The globes were enucleated and frozen in liquid nitrogen and stored at ≤−80° C. prior to dissection. The vitreous humor, cornea, conjunctiva, iris/ciliary body, lens, retina, choroid, and sclera were collected from the appropriate eye, weighed, and stored at ≤−20° C. prior to analysis. Aqueous humor samples were also stored at ≤−20° C. until analyzed.
All radioactivity measurements were performed using a Beckman Liquid Scintillation Spectrometer. Two blood aliquots were combusted and two aliquots were reserved for combustion if needed. From each eye, the cornea, conjunctiva, iris/ciliary body, lens, retina, choroid, and sclera from each eye were weighed into combustion cones and combusted. Duplicate aliquots of each aqueous humor sample and each vitreous humor sample were transferred to scintillation vials using Insta-Gel as the scintillation fluid, and the amount of radioactivity was determined.

[2] = system: primary human retinal pigment epithelial (RPE) cells; test: Viability of primary RPE cells incubated with peptide alone (MTT); format: cell-based; conditions: different concentrations of peptide alone; 24 h
Description: Primary retinal pigment epithelial (RPE) cells were cultured to test the effects of the aromatic-cationic peptides of the invention in preventing or reducing oxidative damage in these cells. Methods useful for the study of primary retinal pigment epithelial cells have been described. See, Dunn et al., ARPE-19, A Human Retinal Pigment Epithelial Cell Line with Differentiated Properties, Experimental Eye Research, 1996, 62(2): 155-170. […] Primary cultured human RPE cells were incubated with different concentrations of D-Arg-2′,6′-Dmt-Lys-Phe-NH2 alone for a period of 24 h, and cell viability was determined by a MTT assay (FIG. 22).

[3] = system: GTM3 cells; test: MMP decline, sustained oxidative injury by H2O2, GTM3 cells; format: cell-based, human; conditions: then 200 μM H2O2 24 h
Description: The effects of D-Arg-2′,6′-Dmt-Lys-Phe-NH2 on sustained oxidative injury of GTM and HTM cells was examined. Cells were pre-treated with 10^−6, 10^−7, 10^−8M of D-Arg-2′,6′-Dmt-Lys-Phe-NH2 for 1 h, and then incubated with 200 μM H2O2 for 24 h to investigate the protective effect of D-Arg-2′,6′-Dmt-Lys-Phe-NH2 in sustained oxidative stress.

[4] = system: cytochrome c release in HRECs; test: Cytochrome c release from mitochondria of HRECs (confocal microscopy, Western blot); format: cell-based, human; conditions: 30 mmol/L glucose; 24 h or 48 h
Text: Glucose (30 mmol/L) induced cytochrome c release from the mitochondria of HRECs. Fixed HRECs were immunolabeled with a cytochrome c antibody and a mitochondrial specific protein antibody (HSP60).

## D-Arg-2′,6′-Dmt-Lys-Phe-NH2
[1]; aqueous humor
  AUC0-24 h: 2600 hr*ng-equi/g
  AUCinf: 2680 hr*ng-equi/g
  T1/2: 4.60 h
  Tmax: 4.0 h
[1]; blood, 1 hour after subcutaneous dosing (1 mg/kg)
  radioactivity concentration: 356 ng-equi/g
[1]; blood, 2 hours after subcutaneous dosing (1 mg/kg)
  radioactivity concentration: 87.9 ng-equi/g
[1]; blood
  AUC0-24 h: 1210 hr*ng-equi/g
  AUCinf: 1250 hr*ng-equi/g
  T1/2: 4.36 h
  Tmax: 2.0 h
[1]; choroid, lens and retina
  time post-dosing at which equivalent drug concentration reached a maximum: 4 h
[1]; choroid, 1 hour after subcutaneous dosing (1 mg/kg)
  equivalent drug concentration: 558±251 ng-equi/g
[1]; choroid
  AUC0-24 h: 1900 hr*ng-equi/g
  AUCinf: 2190 hr*ng-equi/g
  T1/2: 8.21 h
  Tmax: 4.0 h
[1]; conjunctiva, cornea and sclera
  time post-dosing at which equivalent drug concentration reached a maximum: 0.5 h
[1]; conjunctiva, 1 hour after subcutaneous dosing (1 mg/kg)
  equivalent drug concentration: 650±12 ng-equi/g
[1]; conjunctiva
  equivalent drug content at peak concentration, of the total dose administered to the eye: 0.293±0.198%
  AUC0-24 h: 41,400 hr*ng-equi/g
  AUCinf: 56,000 hr*ng-equi/g
  T1/2: 13.6 h
  Tmax: 0.5 h
[1]; cornea, 1 hour after subcutaneous dosing (1 mg/kg)
  equivalent drug concentration: 209 ng-equi/g
[1]; cornea
  equivalent drug content at peak concentration, of the total dose administered to the eye: 0.028±0.005%
  AUC0-24 h: 14,000 hr*ng-equi/g
  Tmax: 0.5 h
[1]; iris/ciliary body, 1 hour after subcutaneous dosing (1 mg/kg)
  equivalent drug concentration: 513±2 ng-equi/g
[1]; iris/ciliary body
  AUC0-24 h: 2750 hr*ng-equi/g
  AUCinf: 3279 hr*ng-equi/g
  T1/2: 8.81 h
  Tmax: 4.0 h
[1]; lens
  AUC0-24 h: 2720 hr*ng-equi/g
  Tmax: 4.0 h
[1]; retina, 1 hour after subcutaneous dosing (1 mg/kg)
  equivalent drug concentration: 336±3 ng-equi/g
[1]; retina
  AUC0-24 h: 1030 hr*ng-equi/g
  AUCinf: 1160 hr*ng-equi/g
  T1/2: 7.01 h
  Tmax: 4.0 h
[1]; sclera, 1 hour after subcutaneous dosing (1 mg/kg)
  equivalent drug concentration: 530±47 ng-equi/g
[1]; sclera
  equivalent drug content at peak concentration, of the total dose administered to the eye: 0.051±0.035%
  AUC0-24 h: 5780 hr*ng-equi/g
  AUCinf: 8910 hr*ng-equi/g
  T1/2: 18.3 h
  Tmax: 0.5 h
[1]; vitreous humor
  AUC0-24 h: 221 hr*ng-equi/g
  AUCinf: 253 hr*ng-equi/g
  T1/2: 7.50 h
  Tmax: 4.0 h
[2]
  cell viability (MTT assay): did not adversely effect these cells
[3]; 0.01 μM pre-treatment 1 h
  MMP Decline: −31.33 ± 1.20 %
[3]; 0.1 μM pre-treatment 1 h
  MMP Decline: −29.33 ± 2.19 %
[3]; 1 μM pre-treatment 1 h
  MMP Decline: −24.33 ± 4.18 %
[4]
  translocation of cytochrome c between mitochondria and cytoplasm: decrease
